Measurements reported in patent publication US4226610A, “Herbicidal compounds, preparation thereof and herbicides containing the same” (Meiji Selka Kaisha, Ltd., priority 1978, dated 1980).

Assays:
warunasubi = assay: Experiment 1 foliar application to naturally growing weeds; type: in vivo, Solanum carolinensis L.; conditions: for Reproduction-inhibiting effect: 4 months
Method in brief: (§1)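 Test compounds, diluted to prescribed concentrations with 0.1% octylphenyl polyoxyethanol surfactant, were sprayed onto foliage of naturally growing weeds at 150 liter per 10 are. Killing index (0, no effect; 5, death) was scored at 21 days. Reproduction was scored from (-), complete suppression, to (+++), none, at 2 months for cockspar grass and 4 months for the other weeds.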

hornwort = assay: Experiment 7 application to water; type: in vivo, Ceratophyllum demersum L.; set-up: scale not given here
Excerpt: (§2) A black soil was packed in 50 cm. square concrete pots and water was poured there-onto at 50 cm. in depth. Hornwort (Ceratophyllum demersum L.), stonewort (Chara Braunii Gmel.) and salvinia (Salvinia natans All.) were transplanted and pond scum (Spirogira crassa Kutz) and diatoms (Bacillariophyta) were floated in the water.
(§3) Then, the compounds of the invention were applied dropwise onto the surface of the water so that the prescribed concentrations in the water are obtained as indicated in Table 9.

pond scum = assay: Experiment 7 application to water; type: in vivo, Spirogira crassa Kutz.; set-up: scale not given here
Excerpt: as §2, §3

chigaya = assay: Experiment 1 foliar application to naturally growing weeds; type: in vivo, Imperata cylindrica Beauv.; conditions: for Reproduction-inhibiting effect: 4 months
Method in brief: as §1

cockspar grass = assay: as above; type: in vivo, Echinochloa Crusgalli P. Beauv.; conditions: 2 months
Method in brief: as §1

salvinia = assay: Experiment 7 application to water; type: in vivo, Salvinia natans Allioni; set-up: scale not given here
Excerpt: as §2, §3

water hyacinth = assay: Experiment 6 spray on aquatic plants in concrete pots; type: in vivo, Eichhornia crassipes Solms; conditions: 3 months
Excerpt: (§4) The detail of the assessment made in the following Experiments of the invention was as follows:
(§5) Four months after treatment, evaluation was made for inhibition of reproduction expressed in terms of symbols ranging from (-) to (+++) where (-) means no reproduction, namely complete suppression of reproduction, (±) remarkable suppression of reproduction; (+) considerable suppression of reproduction; (++) medium supprestion of reproduction; and (+++) no suppression of reproduction.
(§6) A paddy field soil was packed in 50 cm. square concrete pots. omodaka (Sagittaria trifolia L.), urikawa (Sagittaria pygmaea Miq.), prog-bit (Hydrocharis dubia) and aginashi (Sagittaria Aginashi Makino) were transplanted; then water was poured onto the soil at 5 cm. depth.
(§7) Further, water hyacinth, greater-duckweed (Spirodela polyrhiza Schleid.) and duckweed (Lemna paucicostata Hegelm) were floated on the water.
(§8) After one month, the compounds of the invention diluted to the prescribed concentrations as indicated in Table 8 were sprayed in an amount of 100 liter per 10 are. As a surfactant, 0.1% of octylphenyl polyoxyethanol was added thereto.
(§9) The killing index (0, no effect; 5, death) after 21 days and 3 months and the reproduction-inhibiting effect (-, no reproduction; +++, maximum reproduction) after 3 months were determined.

greaterduckweed = assay: as above; type: in vivo, Spirodela polyrhiza Sohleid.; conditions: 3 months
Excerpt: as §4, §5, §6, §7, §8, §9

purple nutsedge = assay: Experiment 1 foliar application to naturally growing weeds; type: in vivo, Cyperus rotundus L.; conditions: 4 months
Method in brief: (§10)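 Naturally growing weeds receive a foliar spray of compound at prescribed concentrations, 150 liter per 10 are, containing 0.1% octylphenyl polyoxyethanol. Kill is rated 0 (no effect) to 5 (death) after 21 days. Regrowth is rated (-) to (+++) after 4 months, or 2 months for cockspar grass.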

oak = assay: Experiment 3 foliar application to naturally growing shrubs; type: in vivo, Quercus serrata Thunb; conditions: after 3 months
Method in brief: (§11)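 Naturally growing shrubs were sprayed on the foliage at 150 liter per 10 are. Plant kill was then scored from 0 to 5 at 1 and 3 months, and reproduction was graded − to +++ at 3 months.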

omodaka = assay: Experiment 6 spray on aquatic plants in concrete pots; type: in vivo, Sagittaria trifolia L.; conditions: for Reproduction-inhibiting effect: 3 months
Excerpt: as §4, §5, §6, §7, §8, §9

Japanese prickly ash = assay: Experiment 3 foliar application to naturally growing shrubs; type: in vivo, Xanthoxylum piperitum DC.; conditions: after 3 months
Method in brief: as §11

white clover = assay: Experiment 1 foliar application to naturally growing weeds; type: in vivo, Trifolium repens L.; conditions: for Reproduction-inhibiting effect: 4 months
Method in brief: as §10

progbit = assay: Experiment 6 spray on aquatic plants in concrete pots; type: in vivo, Hydrocharis dubia; conditions: 3 months
Excerpt: as §4, §5, §6, §7, §8, §9

kiichigo = assay: Experiment 3 foliar application to naturally growing shrubs; type: in vivo, Rubus palmatsu Thunb. forma coptophyllus Makino; conditions: after 3 months
Method in brief: as §11

yamazakura = assay: as above; type: in vivo, Prunus donarium Sieb. var. spontanae Makino; conditions: after 3 months
Method in brief: as §11

torch azalea = assay: as above; type: in vivo, Rhododendoron Kaempferi Planch.; conditions: after 3 months
Method in brief: as §11

manna grass = assay: Experiment 1 foliar application to naturally growing weeds; type: in vivo, Digitaria adsceudes Henr.; conditions: 2 months
Method in brief: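 Dilute compounds to prescribed concentrations; add 0.1% octylphenyl polyoxyethanol; spray foliage of in-situ weeds at 150 liter per 10 are. Score killing 0–5 on day 21. Score reproduction (-) to (+++) at month 2 (cockspar grass) or month 4 (chigaya, azumanezasa, warunasubi).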

diatoms = assay: Experiment 7 application to water; type: in vivo, Bacillariophyta; set-up: key: 0: no effect; 5: perfect control
Excerpt: as §2, §3

CP(=O)(O)CCC(N)C(=O)O (racemic) [DL-AMPB choline]
4.5: Killing index of Upperground parts (warunasubi; 0.1%, 21 days) | controlling effect (hornwort; 3 ppm, 21 days) | Killing index of Upperground parts (chigaya; 0.1%, 21 days) | Killing index (omodaka; 0.2%, 21 days) | Killing index (kiichigo; 0.1%)
5: controlling effect (hornwort; 3 ppm, 3 months) | controlling effect (hornwort; 10 ppm, 3 months) | controlling effect (hornwort; 10 ppm, 21 days) | controlling effect (pond scum; 3 ppm, 3 months) | controlling effect (pond scum; 10 ppm, 3 months) | controlling effect (pond scum; 10 ppm, 21 days) | controlling effect (salvinia; 3 ppm, 3 months) | controlling effect (salvinia; 10 ppm, 3 months) | controlling effect (salvinia; 10 ppm, 21 days) | controlling effect (diatoms; 3 ppm, 3 months) | controlling effect (diatoms; 10 ppm, 3 months) | controlling effect (diatoms; 10 ppm, 21 days)
2: controlling effect (hornwort; 1 ppm, 21 days) | controlling effect (pond scum; 1 ppm, 21 days) | controlling effect (salvinia; 1 ppm, 3 months)
++: Reproduction-inhibiting effect (warunasubi; 0.05%) | Reproduction-inhibiting effect (chigaya; 0.05%) | Reproduction-inhibiting effect (cockspar grass; 0.05%) | Reproduction-inhibiting effect (water hyacinth; 0.1%) | Reproduction-inhibiting effect (purple nutsedge; 0.05%) | Reproduction-inhibiting (oak; 0.05%) | Reproduction-inhibiting effect (omodaka; 0.05%) | Reproduction-inhibiting (Japanese prickly ash; 0.05%) | Reproduction-inhibiting effect (white clover; 0.05%) | Reproduction-inhibiting effect (progbit; 0.05%) | Reproduction-inhibiting (yamazakura; 0.05%) | Reproduction-inhibiting (torch azalea; 0.05%) | Reproduction-inhibiting effect (manna grass; 0.05%)
±: Reproduction-inhibiting effect (warunasubi; 0.1%) | Reproduction-inhibiting effect (cockspar grass; 0.1%) | Reproduction-inhibiting effect (purple nutsedge; 0.2%) | Reproduction-inhibiting effect (omodaka; 0.1%) | Reproduction-inhibiting effect (white clover; 0.1%) | Reproduction-inhibiting effect (progbit; 0.1%) | Reproduction-inhibiting (kiichigo; 0.1%) | Reproduction-inhibiting effect (manna grass; 0.1%)
3: controlling effect (salvinia; 1 ppm, 21 days) | controlling effect (diatoms; 1 ppm, 21 days)
-: Reproduction-inhibiting effect (warunasubi; 0.2%) | Reproduction-inhibiting effect (chigaya; 0.1%) | Reproduction-inhibiting effect (chigaya; 0.2%) | Reproduction-inhibiting effect (cockspar grass; 0.2%) | Reproduction-inhibiting effect (water hyacinth; 0.2%) | Reproduction-inhibiting effect (greaterduckweed; 0.1%) | Reproduction-inhibiting effect (greaterduckweed; 0.2%) | Reproduction-inhibiting (oak; 0.1%) | Reproduction-inhibiting (oak; 0.2%) | Reproduction-inhibiting effect (omodaka; 0.2%) | Reproduction-inhibiting (Japanese prickly ash; 0.2%) | Reproduction-inhibiting effect (white clover; 0.2%) | Reproduction-inhibiting effect (progbit; 0.2%) | Reproduction-inhibiting (kiichigo; 0.2%) | Reproduction-inhibiting (yamazakura; 0.1%) | Reproduction-inhibiting (yamazakura; 0.2%) | Reproduction-inhibiting (torch azalea; 0.1%) | Reproduction-inhibiting (torch azalea; 0.2%) | Reproduction-inhibiting effect (manna grass; 0.2%)
4: controlling effect (pond scum; 3 ppm, 21 days) | controlling effect (salvinia; 3 ppm, 21 days) | controlling effect (diatoms; 3 ppm, 21 days)
+++: Reproduction-inhibiting effect (water hyacinth; 0.05%)
+: Reproduction-inhibiting effect (greaterduckweed; 0.05%) | Reproduction-inhibiting effect (purple nutsedge; 0.1%) | Reproduction-inhibiting (Japanese prickly ash; 0.1%) | Reproduction-inhibiting (kiichigo; 0.05%)
1.5: Killing index of Upperground parts (white clover; 0.05%, 21 days)
1: controlling effect (hornwort; 1 ppm, 3 months) | controlling effect (pond scum; 1 ppm, 3 months) | controlling effect (diatoms; 1 ppm, 3 months)
